Experimental findings from patent US10624917B2, “Compositions and methods useful for treating or preventing liver diseases or disorders, and promoting weight loss” (YALE UNIVERSITY, priority 2014, dated 2020) are described below.

Structures are written as SMILES.

Assay [1] deals with active caspase-1 / pro-IL-1β in PECs. In words: Western blot of caspase-1 and pro-IL-1β in PECs. It is filed as cell-based, mouse. As to conditions: for up-regulation of Pro-IL-1β: 6 hours, FIG. 3C. The procedure: FIGS. 2A-2H illustrate the finding that adenosine mediates increase in IL-1β via the A2A receptor and amplifies signal 1 and signal 2 pathways. FIG. 2A: LPS primed PECs were treated with NECA (10 μM) in the presence or absence of […] different adenosine receptor antagonists for A1 (DPCPX, 10 nM), A2A (ZM 241385, 10 μM), A2B (MRS1706, 10 nM), A3 (MRS1523, 5 μM), or their combinations for 1 hour, and pulsed with ATP for 20 min. FIGS. 2A-2B: A2A receptor specific agonist (CGS21680) and antagonist ZM 241385 increase and block IL-1β production respectively. […] FIG. 2D: PEC's from A2A receptor deficient cells have low IL-1β production, which is not increased by NECA and CGS 21680. FIG. 2E: CGS21680 increases induction of Il1b mRNA expression, and this was decreased in A2A receptor deficient cells. FIG. 2F: Loss of the A2A receptor in macrophages results in much lower levels of Il1b protein A expression in response to LPS. FIG. 2G: CGS21680 and […] increases and decreases production of cleaved caspase-1, respectively. FIG. 2H: The production of cleaved caspase-1 is decreased in A2A receptor deficient macrophages. Data are expressed as the mean±SD from at least three independent experiments Immunoblots shown are representative results from at least three independent experiments. p<0.05 determined by Student's t-test.
(§1) FIGS. 3A-3I illustrate the finding that adenosine supersedes LPS induced tolerance and increases IL-1β production by upregulating transcription of pro-IL-1β via cAMP-PKA pathway. PECs were used in all of the following experiments. FIG. 3A: Primed (pri) with LPS (100 ng/ml) for 16 hours followed by stimulation (stim) with LPS (100 ng/ml), or NECA (10 μM) or CGS21680 (10 μM) in the presence or absence of LPS (100 ng/ml) for 6 hours. FIG. 3B: Treated with forskolin for 6 hours as indicated doses with and without LPS priming FIG. 3C: Treated with or without NECA (10 μM), CGS21680 (10 μM) or db-cAMP (200 μM) for 6 hours. FIG. 3D: LPS primed and treated with NECA or CGS21680 in the presence and absence of SQ22536, H89 and PKi. FIG. 3E: Primed with LPS for 16 hours and treated with ATP for 20 min, followed by CGS 21680 in the presence or absence of the adenylyl cyclase and PKA inhibitors SQ22536 and H-89. FIG. 3F: Primed with LPS and treated with or without NECA (10 μM) or db-cAMP (200 μM) for 6 hours. FIG. 3G: Treated with or without CGS21680 (10 μM) for 3 hours, and transcription was stopped by adding […] actinomycin D, and RNA samples collected at indicated times-points. FIG. 3H: LPS primed PECs obtained from wild type or A2AR-cKO mice were stimulated with NECA (10 μM) for 6 hours. The cells were harvested and RNA isolated after each treatment and the gene expression of Il1b and other genes as indicated quantified by real-time PCR using specific primers. FIG. 3I: Primed with LPS for 16 hours and treated with ATP for 20 min, followed by CGS 21680 in the presence or absence of SQ22536 or H-89 Immunoblot analysis of the proIL-1β caspase-1 in cell lysate was performed by specific […] and anti caspase-1 p10 antibodies (FIGS. 3C, 3E-3F, 3I). Data are expressed as the mean±SD from three independent experiments Immunoblots shown are representative results from at least three independent experiments. *p<0.05 determined by Student's t-test.
Liver tissue lysates or PECs were lysed in RIPA buffer (10 mM phosphate buffer pH 7.4, 150 mM NaCl, 1% NP-40, 0.5% sodium deoxycholate, 0.1% SDS) supplemented with complete protease inhibitor cocktail (Roche) and 2 mM dithiothreitol. Lysates were resolved in 4-12% Tris-glycine gradient gels (Invitrogen) and transferred to nitrocellulose (Invitrogen) by electro-blotting. The following antibodies were used: rabbit anti-caspase-1 p10 (SC-514, Santa Cruz), goat anti-mouse IL-1β (BAF401, R&D Systems), Rabbit antimouse HIF-1α (NB100-449, Novus Biologicals, Littleton, Colo.).
(In general: Immunoblotting shows a protein as a band on a membrane.)

Assay [2] concerns Il1b and other genes in PECs. In words: Quantitative real-time RT-PCR gene expression in PECs. The assay is classed as cell-based, mouse. As to conditions: for ability to supersede LPS tolerance for TIMP-1, VEGF and GLUT-1 gene expression / expression level of IL6 / expression level of Il1b / expression level of Il4: LPS primed PECs; for expression level of IL6 / expression level of Il1b / expression level of Il4: over 6 and 24 hours; for Il1b mRNA expression: PECs pretreated with LPS for 16 hours (LPS tolerant). How it is done: as §1
FIGS. 9A-9H illustrate changes in expression of cytokines and tissue repair genes in peritoneal macrophages in response to adenosine agonists. LPS naive or LPS primed PECs were stimulated with LPS (100 ng ml^−1), CGS21680 (10 μM) or NECA (10 μM) at different time points as indicated. The cells were harvested and RNA isolated after each treatment, and the gene expression of ProIL-1β (Il1b) (FIG. 9A), IL-6 (Il6) (FIG. 9B), IL-4 (Il4) (FIG. 9C), TNF-α (tnfa) (FIG. 9D), TIMP-1 (Timp1) (FIG. 9E), VEGF (vegf) (FIG. 9F), PGK-1 (Pgk1) (FIG. 9G), GLUT-1 (Slc2a1) (FIG. 9H) quantified by real-time PCR using each specific gene primer set as listed. Data are expressed as the mean±SD from three independent experiments. *p<0.05 determined by Student's t-test.
Total RNA was extracted using TRIZOL reagent (Invitrogen), and cDNA was generated with an oligo (dT) primer and the Superscript II system (Invitrogen, USA) followed by analysis using LightCycler 480 system (Roche). q-PCR was performed for Il1b using commercial primer-probe sets (Applied Biosystems Inc.) with DNA master Mix (Roche). Expression of GAPDH was used to standardize the samples, and the results were expressed as a ratio relative to control; q-PCR was performed for tnfa, 116, Txnip, Nlrp3, Hif1a, Timp1, using LightCycler 480 SYBR Green I master mix (Roche). Results were normalized based on the expression of β-actin.

On to `CCNC(=O)[C@H]1O[C@@H](n2cnc3c(N)nc(NCCc4ccc(CCC(=O)O)cc4)nc32)[C@H](O)[C@@H]1O` [CGS21680], for which the “up-regulation of Pro-IL-1β” value in assay [1] is on record as “induced up-regulation”. Also, the “active caspase-1” value in assay [1] (compound alone) is “did not result in detectable active caspase-1”. Also, the “active (cleaved) caspase-1” value in assay [1] (in response to LPS/ATP) is reported as “increases”. In assay [2], the “ability to supersede LPS tolerance for TIMP-1, VEGF and GLUT-1 gene expression” value is recorded as “consistent ability”; the “expression level of IL6” value is “increase”; the “expression level of Il1b” value is “increase”; the “expression level of Il4” value is recorded as “increase”. Moreover, in assay [2], the “Il1b mRNA expression” value is recorded as “dramatic increase”. Besides, in assay [2] (transcription stopped with actinomycin D), the “Il1b transcript stability (rate of loss of Il1b mRNA)” value is reported as “did not affect transcript stability”.

With `CCNC(=O)[C@H]1O[C@@H](n2cnc3c(N)ncnc32)[C@H](O)[C@@H]1O` [NECA, 5′-(N-ethylcarboxamido) adenosine], the “up-regulation of Pro-IL-1β” value in assay [1] is “induced up-regulation”. For the same compound, in assay [2], the “ability to supersede LPS tolerance for TIMP-1, VEGF and GLUT-1 gene expression” value is “consistent ability”; the “expression level of IL6” value is “increase”; the “expression level of Il1b” value was “increase”; the “expression level of Il4” value is given as “increase”. In addition, in assay [2], the “Il1b mRNA expression” value was “dramatic increase”.
